Columns and labels:
[1] = target: Angiotensin-converting enzyme (Homo sapiens) (UniProt P12821); experiment: Activity against ACE(HU_AMTCH400) in the Eurofins Cerep SafetyScreen44 (BI) by Photometry (Cerep_3441); details: Compound concentration 10.0 uM
[2] = target: Histamine H1 receptor (Homo sapiens) (UniProt P35367); experiment: H1 Eurofins-Cerep binding assay; set-up: ligand concentration 1 nM; details: Compound concentration 10.0 uM
[3] = target: Prostaglandin G/H synthase 2 (Homo sapiens) (UniProt P35354); experiment: Inhibitor of COX-2 in the Eurofins Cerep SafetyScreen44 (BI) by Fluorimetry (Cerep_4186); details: Compound concentration 10.0 uM
[4] = target: Glutamate NMDA receptor (Rattus norvegicus) (UniProt P35439+Q00959+Q00960+Q00961+Q62645+Q8VHN2+Q9R1M7); experiment: Inhibitor of NMDA/R in the Eurofins Cerep SafetyScreen44 (BI) by Radioactive Assay (Cerep_66); type: protein-complex assay; details: Compound concentration 10.0 uM
[5] = target: Sodium-dependent dopamine transporter (Homo sapiens) (UniProt Q01959); experiment: dopamine transporter Eurofins-Cerep binding assay; details: Compound concentration 10.0 uM
[6] = target: Alpha-2A adrenergic receptor (Homo sapiens) (UniProt P08913); experiment: Inhibitor of ALPHA2A/HU in the Eurofins Cerep SafetyScreen44 (BI) by Radioactive Assay (Cerep_13); details: Compound concentration 10.0 uM
[7] = target: Vasopressin V1a receptor (Homo sapiens) (UniProt P37288); experiment: V1a Eurofins-Cerep binding assay; set-up: ligand concentration 0.3 nM; details: Compound concentration 10.0 uM
[8] = target: 5-hydroxytryptamine receptor 1A (Homo sapiens) (UniProt P08908); experiment: 5-HT1A Eurofins-Cerep binding assay; set-up: ligand concentration 0.5 nM; details: Compound concentration 10.0 uM
Rattus norvegicus [9] = species on record: Rattus norvegicus; experiment: Activity against BZD/CENTR/R in the Eurofins Cerep SafetyScreen44 (BI) by Radioactive Assay (Cerep_28); type: protein-complex assay; details: Compound concentration 10.0 uM
[10] = target: 5-hydroxytryptamine receptor 2B (Homo sapiens) (UniProt P41595); experiment: 5-HT2B Eurofins-Cerep binding assay; details: Compound concentration 10.0 uM
[11] = target: cGMP-inhibited 3',5'-cyclic phosphodiesterase 3A (Homo sapiens) (UniProt Q14432); experiment: Inhibitor of PDE3A in the Eurofins Cerep SafetyScreen44 (BI) by HTRF-homogeneous time resolved fluoresce (Cerep_4072); details: Compound concentration 10.0 uM
[12] = target: Cannabinoid receptor 2 (Homo sapiens) (UniProt P34972); experiment: Activity against CB2/PERIPH/H in the Eurofins Cerep SafetyScreen44 (BI) by Radioactive Assay (Cerep_37); details: Compound concentration 10.0 uM
[13] = target: 3',5'-cyclic-AMP phosphodiesterase 4D (Homo sapiens) (UniProt Q08499); experiment: Inhibitor of PDE4D2 in the Eurofins Cerep SafetyScreen44 (BI) by Scintillation counting (Cerep_4077); details: Compound concentration 10.0 uM
[14] = target: Endothelin-1 receptor (Homo sapiens) (UniProt P25101); experiment: ETA Eurofins-Cerep binding assay; set-up: ligand concentration 0.03 nM; details: Compound concentration 10.0 uM
[15] = target: Cannabinoid receptor 1 (Homo sapiens) (UniProt P21554); experiment: CB1 Eurofins-Cerep binding assay; details: Compound concentration 10.0 uM
[16] = target: Muscarinic acetylcholine receptor M3 (Homo sapiens) (UniProt P20309); experiment: M3 Eurofins-Cerep binding assay; set-up: ligand concentration 0.2 nM; details: Compound concentration 10.0 uM
[17] = target: Mu-type opioid receptor (Homo sapiens) (UniProt P35372); experiment: mu (MOP) Eurofins-Cerep binding assay; set-up: ligand concentration 0.5 nM; details: Compound concentration 10.0 uM
[18] = target: Cholecystokinin receptor type A (Homo sapiens) (UniProt P32238); experiment: CCK1 (CCKA) Eurofins-Cerep binding assay; set-up: ligand concentration 0.08 nM; details: Compound concentration 10.0 uM
[19] = target: Muscarinic acetylcholine receptor M1 (Homo sapiens) (UniProt P11229); experiment: M1 Eurofins-Cerep binding assay; set-up: ligand concentration 2 nM; details: Compound concentration 10.0 uM
[20] = target: Prostaglandin G/H synthase 1 (Homo sapiens) (UniProt P23219); experiment: Inhibitor of COX-1 in the Eurofins Cerep SafetyScreen44 (BI) by Fluorimetry (Cerep_4173); details: Compound concentration 10.0 uM
[21] = target: D(2) dopamine receptor (Homo sapiens) (UniProt P14416); experiment: Agonist activity in the Eurofins Cerep SafetyScreen44 (BI) against D2SH_AGON by Scintillation counting (Cerep_1322); details: Compound concentration 10.0 uM
[22] = target: 5-hydroxytryptamine receptor 2A (Homo sapiens) (UniProt P28223); experiment: Agonist activity in the Eurofins Cerep SafetyScreen44 (BI) against 5HT2AH_AGON by Scintillation counting (Cerep_471); details: Compound concentration 10.0 uM
[23] = target: Histamine H2 receptor (Homo sapiens) (UniProt P25021); experiment: H2 Eurofins-Cerep binding assay; set-up: ligand concentration 0.075 nM; details: Compound concentration 10.0 uM
[24] = target: D(1A) dopamine receptor (Homo sapiens) (UniProt P21728); experiment: D1 Eurofins-Cerep binding assay; set-up: ligand concentration 0.3 nM; details: Compound concentration 10.0 uM
[25] = target: Adenosine receptor A2a (Homo sapiens) (UniProt P29274); experiment: A2A Eurofins-Cerep binding assay; set-up: ligand concentration 6 nM; details: Compound concentration 10.0 uM
[26] = target: Glucocorticoid receptor (Homo sapiens) (UniProt P04150); experiment: GR Eurofins-Cerep binding assay; details: Compound concentration 10.0 uM
[27] = target: 5-hydroxytryptamine receptor 3A (Homo sapiens) (UniProt P46098); experiment: 5-HT3 Eurofins-Cerep binding assay; set-up: ligand concentration 0.5 nM; details: Compound concentration 10.0 uM
[28] = target: Kappa-type opioid receptor (Homo sapiens) (UniProt P41145); experiment: kappa (KOP) Eurofins-Cerep binding assay; details: Compound concentration 10.0 uM
Rattus norvegicus [29] = species on record: Rattus norvegicus; experiment: KV channel Eurofins-Cerep binding assay; set-up: ligand concentration 0.01 nM; details: Compound concentration 10.0 uM
hERG (KCNH2) = hERG (KCNH2) (Homo sapiens, UniProt Q12809); experiment: Inhibitor of HERG_DOFETILIDE in the Eurofins Cerep SafetyScreen44 (BI) by Scintillation counting (Cerep_4094); set-up: scale not given: the % may be the effect or the level left; details: probe [3H] dofetilide, compound concentration 10 uM, read-out: % Ctrl
[30] = target: Muscarinic acetylcholine receptor M2 (Homo sapiens) (UniProt P08172); experiment: M2 Eurofins-Cerep binding assay; set-up: ligand concentration 2 nM; details: Compound concentration 10.0 uM
[31] = target: Sodium-dependent noradrenaline transporter (Homo sapiens) (UniProt P23975); experiment: norepinephrine transporter Eurofins-Cerep binding assay; set-up: ligand concentration 1 nM; details: Compound concentration 10.0 uM
[32] = target: Alpha-1A adrenergic receptor (Homo sapiens) (UniProt P35348); experiment: Agonist activity in the Eurofins Cerep SafetyScreen44 (BI) against ALPHA1AH_ANTAG by Scintillation counting (Cerep_2338); details: Compound concentration 10.0 uM
[33] = target: Beta-2 adrenergic receptor (Homo sapiens) (UniProt P07550); experiment: beta 2 Eurofins-Cerep binding assay; details: Compound concentration 10.0 uM
Homo sapiens = species on record: Homo sapiens; experiment: Agonist activity in the Eurofins Cerep SafetyScreen44 (BI) against N_NEURO_A4B2 by Radioligand Binding (Cerep_3029); type: protein-complex assay; details: Compound concentration 10.0 uM
[34] = target: Tyrosine-protein kinase Lck (Homo sapiens) (UniProt P06239); experiment: Inhibitor of LCK_CE in the Eurofins Cerep SafetyScreen44 (BI) by lanthanide chelation excitation (Cerep_2906); details: Compound concentration 10.0 uM
[35] = target: MAO-A (amine oxidase [flavin-containing] A) (Homo sapiens, UniProt P21397); experiment: Agonist activity in the Eurofins Cerep SafetyScreen44 (BI) against MAO-A_ANTAG by Scintillation counting (Cerep_443); set-up: scale not given: the % may be the effect or the level left; details: rat; compound concentration 10 uM; read-out: % Ctrl
[36] = target: Delta-type opioid receptor (Homo sapiens) (UniProt P41143); experiment: delta (DOP) Eurofins-Cerep binding assay; set-up: ligand concentration 0.5 nM; details: Compound concentration 10.0 uM
[37] = target: L-type calcium channel (dihydropyridine site), Cav1.2 alpha-1C (Rattus norvegicus, UniProt P22002); experiment: Inhibitor of CA+/DHPSI/R in the Eurofins Cerep SafetyScreen44 (BI) by Radioactive Assay (Cerep_161); type: protein assay; set-up: scale not given: the % may be the effect or the level left; details: rat brain, probe [3H](+)PN200-110, compound concentration 10 uM, read-out: % Ctrl
[38] = target: 5-hydroxytryptamine receptor 1B (Homo sapiens) (UniProt P28222); experiment: 5-HT1B Eurofins-Cerep binding assay; set-up: ligand concentration 1 nM; details: Compound concentration 10.0 uM
[39] = target: Beta-1 adrenergic receptor (Homo sapiens) (UniProt P08588); experiment: beta 1 Eurofins-Cerep binding assay; set-up: ligand concentration 0.3 nM; details: Compound concentration 10.0 uM
[40] = target: Sodium-dependent serotonin transporter (Homo sapiens) (UniProt P31645); experiment: 5-HT transporter Eurofins-Cerep binding assay; set-up: ligand concentration 2 nM; details: Compound concentration 10.0 uM

Chain of Muscarinic acetylcholine receptor M2 (Homo sapiens) (P08172 whole entry): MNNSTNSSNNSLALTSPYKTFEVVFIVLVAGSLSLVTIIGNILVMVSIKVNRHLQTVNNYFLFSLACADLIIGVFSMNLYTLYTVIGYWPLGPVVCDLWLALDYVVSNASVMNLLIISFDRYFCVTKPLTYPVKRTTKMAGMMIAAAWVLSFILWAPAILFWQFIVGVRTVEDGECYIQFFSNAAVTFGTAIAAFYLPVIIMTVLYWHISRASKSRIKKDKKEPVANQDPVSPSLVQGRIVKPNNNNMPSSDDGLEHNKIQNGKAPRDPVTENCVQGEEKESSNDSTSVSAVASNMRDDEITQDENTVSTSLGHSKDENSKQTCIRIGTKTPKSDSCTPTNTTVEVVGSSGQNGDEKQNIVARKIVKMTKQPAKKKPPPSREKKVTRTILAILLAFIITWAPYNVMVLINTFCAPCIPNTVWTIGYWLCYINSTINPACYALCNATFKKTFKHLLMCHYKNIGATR
Chain of hERG (KCNH2) (Q12809 whole entry): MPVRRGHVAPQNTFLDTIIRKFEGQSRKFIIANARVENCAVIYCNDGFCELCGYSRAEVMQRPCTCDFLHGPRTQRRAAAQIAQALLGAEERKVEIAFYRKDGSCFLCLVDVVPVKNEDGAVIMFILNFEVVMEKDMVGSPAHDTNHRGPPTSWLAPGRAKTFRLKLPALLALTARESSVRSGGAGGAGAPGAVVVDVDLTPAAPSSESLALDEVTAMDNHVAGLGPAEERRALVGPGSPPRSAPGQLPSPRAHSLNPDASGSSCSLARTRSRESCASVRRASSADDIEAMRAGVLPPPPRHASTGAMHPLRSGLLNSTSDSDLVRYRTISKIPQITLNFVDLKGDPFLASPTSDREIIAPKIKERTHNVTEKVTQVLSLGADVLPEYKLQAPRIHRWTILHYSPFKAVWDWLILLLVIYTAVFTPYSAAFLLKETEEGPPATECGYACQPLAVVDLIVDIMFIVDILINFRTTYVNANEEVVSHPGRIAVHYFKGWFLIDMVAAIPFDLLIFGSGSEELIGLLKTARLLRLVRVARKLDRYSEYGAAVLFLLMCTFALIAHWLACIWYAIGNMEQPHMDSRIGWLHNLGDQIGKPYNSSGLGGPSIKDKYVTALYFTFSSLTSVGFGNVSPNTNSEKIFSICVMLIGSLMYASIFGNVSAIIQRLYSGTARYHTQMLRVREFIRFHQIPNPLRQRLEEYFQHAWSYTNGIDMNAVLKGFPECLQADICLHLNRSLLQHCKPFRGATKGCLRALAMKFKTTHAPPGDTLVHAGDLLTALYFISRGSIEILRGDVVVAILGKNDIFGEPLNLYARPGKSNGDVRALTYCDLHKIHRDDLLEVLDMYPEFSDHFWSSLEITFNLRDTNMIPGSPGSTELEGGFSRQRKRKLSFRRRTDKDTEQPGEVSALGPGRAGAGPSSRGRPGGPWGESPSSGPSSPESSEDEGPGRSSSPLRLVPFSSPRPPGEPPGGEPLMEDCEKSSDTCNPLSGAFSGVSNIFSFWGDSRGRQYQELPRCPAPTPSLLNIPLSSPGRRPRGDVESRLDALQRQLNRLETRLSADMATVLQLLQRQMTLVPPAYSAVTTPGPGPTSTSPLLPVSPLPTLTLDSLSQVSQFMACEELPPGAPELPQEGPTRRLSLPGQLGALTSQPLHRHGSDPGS
Chain of Histamine H1 receptor (Homo sapiens) (P35367 whole entry): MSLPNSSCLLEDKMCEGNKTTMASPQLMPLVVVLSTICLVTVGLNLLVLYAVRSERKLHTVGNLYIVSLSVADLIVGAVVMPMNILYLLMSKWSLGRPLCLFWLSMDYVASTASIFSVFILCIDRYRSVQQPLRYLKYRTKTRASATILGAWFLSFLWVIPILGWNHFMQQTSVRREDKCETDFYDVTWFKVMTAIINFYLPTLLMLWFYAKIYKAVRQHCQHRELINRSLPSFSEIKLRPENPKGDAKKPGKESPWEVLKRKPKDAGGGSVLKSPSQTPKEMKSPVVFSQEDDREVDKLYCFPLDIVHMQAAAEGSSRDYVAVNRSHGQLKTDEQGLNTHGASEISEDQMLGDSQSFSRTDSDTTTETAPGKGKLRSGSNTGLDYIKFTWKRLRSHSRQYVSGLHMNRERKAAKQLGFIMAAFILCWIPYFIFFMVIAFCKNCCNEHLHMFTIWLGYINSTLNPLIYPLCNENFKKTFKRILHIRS
Chain of Prostaglandin G/H synthase 1 (Homo sapiens) (P23219 whole entry): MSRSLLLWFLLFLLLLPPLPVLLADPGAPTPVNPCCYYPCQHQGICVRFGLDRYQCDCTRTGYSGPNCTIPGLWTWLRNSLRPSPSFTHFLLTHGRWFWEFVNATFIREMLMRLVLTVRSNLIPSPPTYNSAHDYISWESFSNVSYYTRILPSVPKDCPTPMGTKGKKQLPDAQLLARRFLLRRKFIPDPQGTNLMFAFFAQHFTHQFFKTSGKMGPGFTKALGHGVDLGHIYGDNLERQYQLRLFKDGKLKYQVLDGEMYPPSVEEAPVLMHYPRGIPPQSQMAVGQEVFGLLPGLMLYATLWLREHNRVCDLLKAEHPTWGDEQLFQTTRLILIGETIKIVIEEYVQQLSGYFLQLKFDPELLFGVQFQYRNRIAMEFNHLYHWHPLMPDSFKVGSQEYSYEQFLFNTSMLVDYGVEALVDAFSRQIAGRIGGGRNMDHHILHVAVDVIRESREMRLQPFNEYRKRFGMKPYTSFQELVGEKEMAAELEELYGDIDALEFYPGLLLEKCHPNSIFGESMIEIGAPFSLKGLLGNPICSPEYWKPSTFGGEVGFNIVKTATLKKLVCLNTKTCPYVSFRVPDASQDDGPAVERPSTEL
Chain of 3',5'-cyclic-AMP phosphodiesterase 4D (Homo sapiens) (Q08499 whole entry): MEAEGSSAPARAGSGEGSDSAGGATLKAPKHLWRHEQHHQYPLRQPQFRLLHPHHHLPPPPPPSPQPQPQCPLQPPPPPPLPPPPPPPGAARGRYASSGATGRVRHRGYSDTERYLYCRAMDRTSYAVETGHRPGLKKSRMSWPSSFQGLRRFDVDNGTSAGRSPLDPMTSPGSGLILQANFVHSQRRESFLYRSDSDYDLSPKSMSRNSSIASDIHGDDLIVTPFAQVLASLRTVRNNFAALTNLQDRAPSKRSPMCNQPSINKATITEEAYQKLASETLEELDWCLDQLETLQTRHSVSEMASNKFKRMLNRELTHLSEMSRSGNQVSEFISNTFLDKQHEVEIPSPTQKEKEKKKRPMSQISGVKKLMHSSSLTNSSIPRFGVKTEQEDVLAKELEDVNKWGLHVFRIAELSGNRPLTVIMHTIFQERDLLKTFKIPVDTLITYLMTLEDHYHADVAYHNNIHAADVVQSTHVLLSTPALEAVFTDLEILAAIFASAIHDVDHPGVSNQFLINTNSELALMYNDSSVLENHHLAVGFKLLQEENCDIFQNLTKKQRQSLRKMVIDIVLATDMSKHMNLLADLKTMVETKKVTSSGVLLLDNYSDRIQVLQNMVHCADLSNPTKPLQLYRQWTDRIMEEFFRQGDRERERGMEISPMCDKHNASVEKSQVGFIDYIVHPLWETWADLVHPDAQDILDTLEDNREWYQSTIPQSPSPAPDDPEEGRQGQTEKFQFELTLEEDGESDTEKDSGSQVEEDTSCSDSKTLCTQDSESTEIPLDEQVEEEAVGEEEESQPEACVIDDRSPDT
Chain of D(2) dopamine receptor (Homo sapiens) (P14416 whole entry): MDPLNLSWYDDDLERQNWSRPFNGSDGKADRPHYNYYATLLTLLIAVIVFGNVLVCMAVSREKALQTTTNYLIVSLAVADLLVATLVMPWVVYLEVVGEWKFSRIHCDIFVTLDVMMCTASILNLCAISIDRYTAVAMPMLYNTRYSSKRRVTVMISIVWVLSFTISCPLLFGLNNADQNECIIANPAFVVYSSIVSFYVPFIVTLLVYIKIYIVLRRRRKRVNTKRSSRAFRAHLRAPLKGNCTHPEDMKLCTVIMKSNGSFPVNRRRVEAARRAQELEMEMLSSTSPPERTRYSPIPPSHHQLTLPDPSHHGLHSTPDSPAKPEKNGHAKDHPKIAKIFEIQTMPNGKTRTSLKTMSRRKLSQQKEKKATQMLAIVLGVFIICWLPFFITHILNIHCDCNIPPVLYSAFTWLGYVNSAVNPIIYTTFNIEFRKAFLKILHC
Chain of Beta-2 adrenergic receptor (Homo sapiens) (P07550 whole entry, looked up): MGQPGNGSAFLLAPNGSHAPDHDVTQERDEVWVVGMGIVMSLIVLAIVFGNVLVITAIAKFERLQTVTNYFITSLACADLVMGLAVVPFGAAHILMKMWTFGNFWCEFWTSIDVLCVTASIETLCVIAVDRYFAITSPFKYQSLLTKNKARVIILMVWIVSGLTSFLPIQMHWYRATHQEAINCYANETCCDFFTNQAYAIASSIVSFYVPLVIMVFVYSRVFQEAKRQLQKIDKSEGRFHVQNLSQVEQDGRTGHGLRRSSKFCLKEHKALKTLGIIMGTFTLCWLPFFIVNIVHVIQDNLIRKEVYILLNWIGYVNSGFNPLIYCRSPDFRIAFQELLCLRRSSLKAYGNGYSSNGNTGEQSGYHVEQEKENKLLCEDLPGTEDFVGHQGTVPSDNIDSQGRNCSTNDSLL
Chain of 5-hydroxytryptamine receptor 2A (Homo sapiens) (P28223 whole entry): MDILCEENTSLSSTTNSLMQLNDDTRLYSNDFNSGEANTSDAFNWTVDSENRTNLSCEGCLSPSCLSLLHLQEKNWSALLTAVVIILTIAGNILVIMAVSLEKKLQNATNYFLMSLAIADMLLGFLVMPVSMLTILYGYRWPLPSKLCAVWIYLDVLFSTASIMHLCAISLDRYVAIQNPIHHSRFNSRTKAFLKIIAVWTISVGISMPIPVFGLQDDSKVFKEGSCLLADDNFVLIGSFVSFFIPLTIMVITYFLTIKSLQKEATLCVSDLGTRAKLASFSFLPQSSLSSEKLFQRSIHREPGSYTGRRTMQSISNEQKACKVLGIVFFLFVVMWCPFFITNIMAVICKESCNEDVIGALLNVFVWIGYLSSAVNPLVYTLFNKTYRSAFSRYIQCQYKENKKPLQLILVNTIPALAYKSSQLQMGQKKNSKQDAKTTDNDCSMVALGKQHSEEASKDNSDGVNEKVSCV

Cc1nnc2n1-c1sc(CCC(=O)N3CCOCC3)cc1C(c1ccccc1Cl)=NC2 [APAFANT]
active: residual activity [3] 47% | residual activity (Rattus norvegicus [9]) 12%
93% (not active): activity at 10 µM [35]
105% (not active): activity at 10 µM (hERG (KCNH2))
inactive: residual activity [1] 96% | residual activity [2] 101% | residual activity [4] 101% | residual activity [5] 97% | residual activity [6] 100% | residual activity [7] 109% | residual activity [8] 101% | residual activity [10] 86% | residual activity [11] 105% | residual activity [12] 111% | residual activity [13] 103% | residual activity [14] 106% | residual activity [15] 103% | residual activity [16] 98% | residual activity [17] 108% | residual activity [18] 90% | residual activity [19] 107% | residual activity [20] 96% | residual activity [21] 114% | residual activity [22] 114% | residual activity [23] 108% | residual activity [24] 101% | residual activity [25] 104% | residual activity [26] 105% | residual activity [27] 102% | residual activity [28] 95% | residual activity (Rattus norvegicus [29]) 94% | residual activity [30] 98% | residual activity [31] 94% | residual activity [32] 99% | residual activity [33] 107% | residual activity (Homo sapiens) 104% | residual activity [34] 123% | residual activity [36] 99% | residual activity [38] 91% | residual activity [39] 101% | residual activity [40] 106%
106% (not active): activity at 10 µM [37]

— ChEMBL document CHEMBL5463721, “Data for DCP probe WEB2086” (2023)
